Patent publication US9056867B2, “N-substituted heterocyclyl carboxamides” (NOVARTIS AG, priority 2011, dated 2015)
Where two headings read alike, the source gives them in different places.

Target: T1, ΔF508-CFTR channel (Homo sapiens, UniProt P13569, DEL508-508)
T1 construct: expressed in transfected cells
Test: CFTR potentiator assays (membrane potential assay, IonWorks Quattro assay, ion transport assay); the patent does not say which one gave the values
Format: cell-based
Details: cells stably expressing ΔF508-CFTR, forskolin present, read-out: Ki values in the data measurements described above
Text: CFTR activity can be quantified by measuring the transmembrane potential. The means for measuring the transmembrane potential in a biological system can employ a number of methods including electrophysiological and optical fluoresence-based membrane potential assays.
The optical membrane potential assay utilises a negatively charged potentiometric dye, such as the FLIPR membrane potential dye (FMP) (see Baxter D F, Kirk M, Garcia A F, Raimondi A, Holmqvist M H, Flint K K, Bojanic D, Distefano P S, Curtis R, Xie Y. ‘A novel membrane potential-sensitive fluorescent dye improves cell-based assays for ion channels.’ J Biomol Screen. 2002 Feb.; 7(1):79-85) which when extraceullar is bound to a quenching agent. Upon cellular depolarisation the negatively charged dye redistributes to the intracellular compartment, unbinding from the membrane impermeant quench agent, yielding an increase in fluorescence. This change in fluoresence is proportional to the change in transmembrane potential which can result from the activity of CFTR. The changes in fluorescence can be monitored in real time by an appropriately equipped fluorescence detector such as the FLIPR (fluorometric imaging plate reader) in 96 or 384-well microtitre plates.
Chinese hamster ovary (CHO) cells stably expressing the ΔF508-CFTR channel were used for membrane potential experiments. Cells were maintained at 37° C. in 5% v/v CO2 at 100% humidity in Modified Eagles medium (MEM) supplemenetd with 8% v/v foetal calf serum, 100 μg/ml methotrexate and 100 U/ml penicillin/streptomycin. Cells were grown in 225 cm^2 tissue culture flasks. For membrane potential assays cells were seeded into 96 well plates at 40,000 cells per well, allowed to adhere and then maintained at 26° C. for 48 h to facilitate channel insertion.
The membrane potential screening assay utilised a low chloride ion containing extraceullular solution (˜5 mM) combined with a double addition protocol. The first addition was of buffer with or without test compound followed 5 minutes later by an addition of forskolin (1-20 μM)—this protocol favours maximum chloride efflux in response to ΔF508-CFTR activation. The ΔF508-CFTR mediated chloride ion efflux leads to a membrane depolarisation which is optically monitoried by the FMP dye.
Low chloride extracellular (mM): 120 Na-gluconate, 1.2 CaCl2, 3.3 KH2PO4, 0.8 K2HPO4, 1.2 MgCl2, 10.0 D-glucose, 20.0 HEPES, pH 7.4 with NaOH
FMP dye: made up as per manufacuturers instructions in low chloride extracellular solution detailed above, at 10× final concentration, and stored as 1 mL aliquots at −20° C.
CFTR activity can also be quantified electrophysiologically using the whole-cell configuration of the patch clamp technique (Hamill et al Pflugers Acrhive 1981). This assay directly measures the currents associated with chloride flow through CFTR channels whilst either maintaining or adjusting the transmembrane voltage. This assay can use either single glass micropipettes or parallel planar arrays to measure CFTR activity from native or recombinant cell systems. Currents measured using parallel planar arrays can be quantified using an appropriately equipped instrument such as the IonWorks Quattro (Molecular Devices) or the Qpatch (Sophion). The Quattro system can measure CFTR currents from either a single cell per recording well (HT configuration) or alternatively from a population of 64 cells per well (Population Patch Clamp PPC) (Finkel A, Wittel A, Yang N, Handran S, Hughes J, Costantin J. ‘Population patch clamp improves data consistency and success rates in the measurement of ionic currents.’ J Biomol Screen. 2006 Aug.; 11(5):488-96).
Chinese hamster ovary (CHO) cells stably expressing the ΔF508-CFTR channel were used for IonWorks Quattro experiments. […]

T1 sequence (P13569 with tags, fused parts or gaps DEL508-508): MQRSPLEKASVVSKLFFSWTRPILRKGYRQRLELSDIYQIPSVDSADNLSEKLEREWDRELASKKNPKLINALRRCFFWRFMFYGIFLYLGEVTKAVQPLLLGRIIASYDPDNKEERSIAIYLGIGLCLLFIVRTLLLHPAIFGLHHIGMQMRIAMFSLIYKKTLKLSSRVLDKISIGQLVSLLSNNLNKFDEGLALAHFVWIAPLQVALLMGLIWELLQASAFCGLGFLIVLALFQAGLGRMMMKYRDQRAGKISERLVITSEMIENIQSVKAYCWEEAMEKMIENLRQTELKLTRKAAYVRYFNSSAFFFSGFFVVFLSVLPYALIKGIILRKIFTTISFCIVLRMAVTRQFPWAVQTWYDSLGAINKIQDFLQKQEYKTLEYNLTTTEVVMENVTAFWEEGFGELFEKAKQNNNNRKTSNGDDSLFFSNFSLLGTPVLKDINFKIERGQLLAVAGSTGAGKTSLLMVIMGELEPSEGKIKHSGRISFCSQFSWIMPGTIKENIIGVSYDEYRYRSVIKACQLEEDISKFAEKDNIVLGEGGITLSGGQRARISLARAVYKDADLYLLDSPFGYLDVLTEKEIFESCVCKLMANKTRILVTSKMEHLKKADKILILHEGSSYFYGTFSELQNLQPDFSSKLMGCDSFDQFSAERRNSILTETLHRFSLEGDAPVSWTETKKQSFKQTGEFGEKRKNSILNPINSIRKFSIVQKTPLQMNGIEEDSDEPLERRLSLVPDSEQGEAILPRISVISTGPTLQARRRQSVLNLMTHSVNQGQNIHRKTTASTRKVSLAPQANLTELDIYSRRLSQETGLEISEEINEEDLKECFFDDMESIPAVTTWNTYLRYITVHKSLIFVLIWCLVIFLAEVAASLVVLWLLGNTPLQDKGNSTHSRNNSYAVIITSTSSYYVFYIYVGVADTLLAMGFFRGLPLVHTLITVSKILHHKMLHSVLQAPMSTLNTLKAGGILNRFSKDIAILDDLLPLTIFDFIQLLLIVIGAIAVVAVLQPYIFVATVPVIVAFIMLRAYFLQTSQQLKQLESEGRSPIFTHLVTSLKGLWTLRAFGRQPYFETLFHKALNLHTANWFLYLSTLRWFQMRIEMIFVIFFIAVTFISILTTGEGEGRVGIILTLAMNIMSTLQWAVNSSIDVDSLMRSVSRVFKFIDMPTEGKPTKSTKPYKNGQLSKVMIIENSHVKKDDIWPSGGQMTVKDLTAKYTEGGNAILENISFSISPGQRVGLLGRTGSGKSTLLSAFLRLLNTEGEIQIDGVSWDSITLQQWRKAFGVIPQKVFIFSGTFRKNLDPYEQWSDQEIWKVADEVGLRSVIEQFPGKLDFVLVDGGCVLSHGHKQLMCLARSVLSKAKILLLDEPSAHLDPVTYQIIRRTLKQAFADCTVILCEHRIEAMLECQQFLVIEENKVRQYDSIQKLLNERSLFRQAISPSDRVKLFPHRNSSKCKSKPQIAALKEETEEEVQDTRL

Compound	Ki (values given in μM)	Ki (values in nM)
Nc1cc(C(F)(F)F)c(Br)nc1C(=O)Nc1cc(C(F)(F)F)n[nH]1 [Example 5, 3-Amino-6-bromo-5-trifluoromethyl-pyridine-2-carboxylic acid (5-trifluoromethyl-2H-pyrazol-3-yl)-amide]	0.07 µM	–
Nc1cc(C(F)(F)F)c(Br)nc1C(=O)Nc1ccn[nH]1 [Example 7, 3-Amino-6-bromo-5-trifluoromethyl-pyridine-2-carboxylic acid (2H-pyrazol-3-yl)-amide]	0.01 µM	–
Nc1nc(C(F)(F)F)c(Cl)nc1C(=O)Nc1ccn[nH]1 [Example 14, 3-Amino-6-chloro-5-trifluoromethyl-pyrazine-2-carboxylic acid (2H-pyrazole-3-yl)amide]	0.255 µM	–
Nc1cc(C(F)(F)F)c(Br)nc1C(=O)Nc1n[nH]c2nccnc12 [Example 18, 3-Amino-6-bromo-N-(1H-pyrazolo[4,3-b]pyrazin-3-yl)-5-(trifluoromethyl)picolinamide]	0.004 µM	–
Nc1nc(C(F)(F)F)c(Br)nc1C(=O)Nc1[nH]ncc1-c1ccccn1 [Example 19, 3-Amino-6-bromo-N-(4-(pyridin-2-yl)-1H-pyrazol-5-yl)-5-(trifluoromethyl)pyrazine-2-carboxamide]	1.55 µM	–
Nc1cc(C(F)(F)F)c(Cl)nc1C(=O)Nc1ccn[nH]1 [Example 22, 3-Amino-6-chloro-N-(1H-pyrazol-5-yl)-5-(trifluoromethyl)picolinamide]	0.025 µM	–
Nc1nc(C(F)(F)F)c(Br)nc1C(=O)Nc1nc(Cc2ccccc2)n[nH]1 [Example 24, 3-Amino-N-(3-benzyl-1H-1,2,4-triazol-5-yl)-6-bromo-5-(trifluoromethyl)pyrazin-2-carboxamide]	0.02 µM	–
Nc1cc(C(F)(F)F)c(-c2ccc(F)cc2)nc1C(=O)Nc1cc[nH]n1 [Example 25.1, 3-Amino-6-(4-fluorophenyl)-N-(1H-pyrazol-3-yl)-5-(trifluoromethyl)picolinamide]	–	0.0038 µM
Cc1cc(Cl)ccc1-c1nc(C(=O)Nc2ccn[nH]2)c(N)cc1C(F)(F)F [Example 25.2, 3-Amino-6-(4-chloro-2-methyl-phenyl)-5-trifluoro methyl-pyridine-2-carboxylic acid (2H-pyrazol-3-yl)-amide]	–	0.013 µM
COc1ncccc1-c1nc(C(=O)Nc2cc[nH]n2)c(N)cc1C(F)(F)F [Example 25.3, 5-Amino-2′-methoxy-3-trifluoro methyl-[2,3′]bipyridinyl-6-carboxylic acid (1H-pyrazol-3-yl)-amide]	–	0.014 µM
Nc1cc(C(F)(F)F)c(-c2cccc(CN3CCCC3=O)c2)nc1C(=O)Nc1ccn[nH]1 [Example 26.1, 3-Amino-6-[3-(2-oxo-pyrrolidin-1-ylmethyl)-phenyl]-5-trifluoromethyl-pyridine-2-carboxylic acid (2H-pyrazol-3-yl)-amide]	–	0.03 µM
COc1ccc(-c2nc(C(=O)Nc3ccn[nH]3)c(N)cc2C(F)(F)F)cn1 [Example 26.2, 5-Amino-6′-methoxy-3-trifluoromethyl-[2,3′]bipyridinyl-6-carboxylic acid (2H-pyrazol-3-yl)-amide]	–	0.045 µM
Cc1nnc(-c2ccc(-c3nc(C(=O)Nc4ccn[nH]4)c(N)cc3C(F)(F)F)cc2)o1 [Example 26.3, 3-Amino-6-[4-(5-methyl-[1,3,4]oxadiazol-2-yl)-phenyl]-5-trifluoromethyl-pyridine-2-carboxylic acid (2H-pyrazol-3-yl)-amide]	0.16 µM	–
Cc1cn[nH]c1NC(=O)c1nc(C(F)(F)F)c(C(F)(F)F)nc1N [Example 27, 3-Amino-5,6-bis-trifluoromethyl-pyrazine-2-carboxylic acid (4-methyl-2H-pyrazol-3-yl)-amide]	–	0.019 µM
